This is an account of results in patent publication US20250195475A1, “CDK2 INHIBITOR AND PREPARATION METHOD AND USE THEREOF” (INVENTISBIO CO., LTD., priority 2022, published 2025).

The experiment deals with CDK2/CyclinE1 (Homo sapiens (Human), UniProt P24941). Description: CDK2 kinase assay (TR-FRET). It is filed as biochemical. The settings on record: CDK2/CyclinE1 0.5 nM, ATP 50 μM. The protocol: The purpose of these assays is to evaluate the inhibition of small molecule inhibitors by using TR-FRET assay.
Compound Preparation. Dissslove the compounds into DMSO solution to make 10 mM DMSO stock. Serially dilute the stock solution from highest concentration down to lowest in DMSO to make the compound stock plate (100× stock plates). To make 5× compound intermediate plate, add 38 μL of assay buffer (50 mM HEPES, pH 7.5, 0.05 mg/mL BSA, 10 mM MgCl2, 1 mM EGTA, 0.01% Tween-20, 2 mM DTT) into each well of the V-bottom plate; then transfer 2 μL of the stock compound solution of each concentration from the compound stock plate (100× stock), and mix well.
Enzyme reaction. Transfer 2 μL compound from 5× intermediate plate into assay plate, then add 4 μL/well 2.5× Enzyme mix to assay plate, incubation for 10 min at room temperature. For positive control wells, add 4 μL/well assay buffer instead of Enzyme mix. Then add 4 μL/well 2.5× Substrate mix to assay plate, and incubation at 25° C. for 30 min at room temperature. After reaction, 10 μL 2× Detection mix (final 15 mM EDTA, 1× LANCE Detection Buffer, 0.5 nM Detection antibody) was added and incubated for 1 h prior to detection with excitation and emission at 320 and 665 nm (Tecan Spark® TR-FRET mode Tecan).
Inhibition rate (IR) of the tested compounds was determined by the following formula: IR (%)=(average High control−compound well)/(average High control−average Low control)*100%. Fit the compound IC50 from non-linear regression equation: Y=Bottom+(Top−Bottom)/(1+10^((Log IC50−X)*HillSlope)). X: Log of cpd concentration; Y: Inhibition rate (TR); Top and Bottom: Plateaus in same units as Y, log IC50: same log units as X; HillSlope: Slope factor or Hill slope.
Take `CC(C)NC(=O)O[C@@H]1CC[C@H](c2cc(NC(=O)C3CC3C#N)n[nH]2)C1` (single isomer, unassigned) [Compound 117]: the IC50 (as a rule, the point on the concentration scale where inhibition reaches its midpoint) stood at 3.8 nM. That is a single-digit nanomolar value.
Next, `COC[C@H]1C[C@@H]1C(=O)Nc1cc([C@H]2CC[C@@H](OC(=O)NC34CC(C(F)F)(C3)C4)C2)[nH]n1` [Compound 142]: 1.6 nM; `CC(C)NC(=O)O[C@@H]1CC[C@H](c2cc(NC(=O)[C@@H]3C[C@@H](C(C)C)N(S(C)(=O)=O)C3)n[nH]2)C1` [Compound 179]: 12.6 nM; `COC[C@H]1C[C@@H]1C(=O)Nc1cc([C@H]2CC[C@@H](OC(=O)N[C@H](C)C3CC3)C2)[nH]n1` [Compound 73]: 4.1 nM.
The molecule `CC(C)NC(=O)O[C@@H]1CO[C@H](c2cc(NC(=O)c3cc(C4CC4)nn3C)n[nH]2)C1` [Compound 77] registered a concentration for half-maximal inhibition (IC50) of 56 nM.
As for `Cc1occc1C(=O)Nc1cc([C@@H]2C[C@H](OC(=O)NC(C)C)CO2)[nH]n1` [Compound 133], the figure is 50.1 nM; as for `Cn1nccc1C(=O)Nc1cc([C@H]2C[C@@H](OC(=O)NC3(C)CC3)CO2)[nH]n1` [Compound 94], 1.3 nM; as for `CC[C@H](C)NC(=O)O[C@@H]1CC[C@H](c2cc(NC(=O)C3CC3C#N)n[nH]2)C1` (single isomer, unassigned) [Compound 199], 2.3 nM.
As for `CC(C)NC(=O)O[C@@H]1CC[C@H](c2cc(NC(=O)[C@H]3CCN(C(=O)c4cnn(C)c4)C3)n[nH]2)C1` [Compound 32], the figure is 2.9 nM.
Next, `Cn1nccc1C(=O)Nc1cc([C@@H]2C[C@H](OC(=O)NC3(CF)CCC3)CO2)[nH]n1` [Compound 216]: 1.8 nM.
With `COCc1cc(C(=O)Nc2cc([C@H]3C[C@@H]4[C@H](C3)[C@H]4C(=O)NC(C)C)[nH]n2)n(C)n1` [Compound 69], the IC50 turned out to be 18.8 nM. Compared with the last molecule, the IC50 is about 10-fold higher.
As for `CC(C)NC(=O)O[C@@H]1CC[C@H](c2cc(NC(=O)C3CCCC3)n[nH]2)C1` [Compound 37], the figure is 2.9 nM; as for `CC1(NC(=O)O[C@@H]2CC[C@H](c3cc(NC(=O)[C@@H]4CCN(S(=O)(=O)C5CC5)C4)n[nH]3)C2)CC1` [Compound 140], 0.7 nM; as for `C#C[C@H]1C[C@@H]1C(=O)Nc1cc([C@@H]2C[C@H](OC(=O)NC3(C)CC3)CO2)[nH]n1` [Compound 157], 2.9 nM.
As for `CC(C)NC(=O)OC1COC(c2cc(NC(=O)c3ccnn3C)n[nH]2)C1` (stereo not shown) [Compound 27], the figure is 1.2 nM.
As for `CC(C)NC(=O)O[C@H]1CO[C@@H](c2cc(NC(=O)Cc3ccc(OCCN4CCCC4)cc3)n[nH]2)C1` [Compound 121], the figure is 3.2 nM; as for `CC[C@H](C)NC(=O)O[C@@H]1CC[C@H](c2cc(NC(=O)C3CC3C#N)n[nH]2)C1` (single isomer, unassigned) [Compound 200], 0.9 nM; as for `Cc1occc1C(=O)Nc1cc([C@H]2C[C@@H](OC(=O)NC(C)C)CO2)[nH]n1` [Compound 129], 11.8 nM.
With `C#C[C@H]1C[C@@H]1C(=O)Nc1cc([C@@H]2C[C@H](OC(=O)NC3(C)CCC3)CO2)[nH]n1` [Compound 171], the IC50 is 1.3 nM.
As for `CCC(C)(C)NC(=O)O[C@H]1CO[C@@H](c2cc(NC(=O)c3ccnn3C)n[nH]2)C1` [Compound 190], the figure is 0.6 nM; as for `COC1CCC(C(=O)Nc2cc([C@H]3CC[C@@H](OC(=O)NC(C)C)C3)[nH]n2)C1` (single isomer, unassigned) [Compound 61], 13.1 nM; as for `CC1(NC(=O)OC2COC(c3cc(NC(=O)Cc4cc(F)cc(F)c4)n[nH]3)C2)CCOC1` (stereo not shown) [Compound 51], 1.7 nM.
As for `CC#C[C@H]1C[C@@H]1C(=O)Nc1cc([C@H]2CC[C@@H](OC(=O)NC(C)C)C2)[nH]n1` [Compound 177], the figure is 1 nM.
As for `CC(C)NC(=O)O[C@@H]1CC[C@H](c2cc(NC(=O)[C@@H]3C[C@@H](C)N(S(C)(=O)=O)C3)n[nH]2)C1` [Compound 127], the figure is 3.6 nM.
Molecule `CC(C)NC(=O)O[C@@H]1CC[C@H](c2cc(NC(=O)C3CC4CCC3O4)n[nH]2)C1` (single isomer, unassigned) [Compound 152] showed an IC50 of 85.5 nM.
With `CC(C)NC(=O)O[C@@H]1CC[C@H](c2cc(NC(=O)[C@H]3C[C@@H]3C#CC(F)F)n[nH]2)C1` [Compound 161], the IC50 was 1 nM.
As for `CC(C)NC(=O)O[C@@H]1CC[C@H](c2cc(NC(=O)C3CN(S(C)(=O)=O)CC3C)n[nH]2)C1` (stereo partly shown) [Compound 75], the figure is 11.5 nM.
As for `COC[C@H]1C[C@@H]1C(=O)Nc1cc([C@H]2CC[C@@H](OC(=O)NC34CC(F)(C3)C4)C2)[nH]n1` [Compound 125], the figure is 1.3 nM; as for `CC[C@H](C)NC(=O)O[C@H]1CO[C@@H](c2cc(NC(=O)c3ccnn3C)n[nH]2)C1` [Compound 99], 0.8 nM.
Next, `COC[C@H]1C[C@@H]1C(=O)Nc1cc([C@H]2CC[C@@H](OC(=O)NC3(C)CC3)C2)[nH]n1` [Compound 35]: 0.8 nM; `COCc1cc(C(=O)NC2=NCC([C@H]3CC[C@H](N4CCN(C(C)C)C4=O)C3)=C2)n(C)n1` [Compound 20]: 1000 nM.
`Cn1nccc1C(=O)Nc1cc([C@H]2C[C@@H](OC(=O)NC34CC(C3)C4)CO2)[nH]n1` [Compound 96] yielded an IC50 of 0.8 nM.
Take `CC(C)NC(=O)O[C@H]1CO[C@@H](c2cc(NC(=O)c3cc(C4CC4)nn3C)n[nH]2)C1` [Compound 80]: the IC50 came out at 15.4 nM.
`Cc1c([C@@H]2C[C@H]2C(=O)Nc2cc([C@H]3CC[C@@H](OC(=O)NC4(C)CCC4)C3)[nH]n2)cnn1C` [Compound 218] displayed an IC50 of 0.6 nM. This IC50 lies about 26-fold lower than the previous one.
For `CS(=O)(=O)N1CC[C@@H](C(=O)Nc2cc([C@H]3CC[C@@H](OC(=O)NC45CC(C4)C5)C3)[nH]n2)C1` [Compound 81], the concentration for half-maximal inhibition (IC50) came out at 0.9 nM.
Next, `CC1(NC(=O)OC2COC(c3cc(NC(=O)Cc4cc(F)cc(F)c4)n[nH]3)C2)CCOC1` (stereo not shown) [Compound 50]: 0.9 nM.
Next, `CO[C@H]1CC[C@H](C(=O)Nc2cc([C@H]3CC[C@@H](OC(=O)NC(C)C)C3)[nH]n2)CC1` [Compound 2]: 17.8 nM.
As for `CC(C)NC(=O)O[C@@H]1CC[C@H](c2cc(NC(=O)C3CC(C)N(S(C)(=O)=O)C3)n[nH]2)C1` (single isomer, unassigned) [Compound 144], the figure is 4.3 nM; as for `CC(C)NC(=O)O[C@@H]1CC[C@H](c2cc(NC(=O)C34CC(C(F)F)(C3)C4)n[nH]2)C1` [Compound 106], 1.8 nM; as for `C#C[C@H]1C[C@@H]1C(=O)Nc1cc([C@H]2C[C@@H](OC(=O)NC(C)(C)C)CO2)[nH]n1` [Compound 166], 0.9 nM.
In turn, `CC(C)NC(=O)O[C@@H]1CC[C@H](c2cc(NC(=O)C3CC3C#N)n[nH]2)C1` (stereo partly shown) [Compound 87] yielded an IC50 of 3.6 nM.
Next, `Cc1cc(C(=O)Nc2cc([C@H]3C[C@@H](OC(=O)NC(C)C)CO3)[nH]n2)n(C)n1` [Compound 90]: 5.7 nM; `CC(C)NC(=O)O[C@@H]1CC[C@H](c2cc(NC(=O)[C@@H]3CCN(S(=O)(=O)C(C)C)C3)n[nH]2)C1` [Compound 58]: 4.1 nM.
As for `CC1(NC(=O)O[C@@H]2CC[C@H](c3cc(NC(=O)[C@@H]4CCN(S(=O)(=O)C5CC5)C4)n[nH]3)C2)CCC1` [Compound 139], the figure is 0.7 nM.
Next, `CC(C)NC(=O)OC1COC(c2cc(NC(=O)Cc3ccc(C(F)(F)F)cc3)n[nH]2)C1` (stereo not shown) [Compound 63]: 9.7 nM; `CC(C)NC(=O)O[C@@H]1CC[C@H](c2cc(NC(=O)[C@H]3CCN(S(C)(=O)=O)C3)n[nH]2)C1` [Compound 7]: 2.4 nM; `COC[C@H]1C[C@@H]1C(=O)Nc1cc([C@@H]2CC[C@H](OC(=O)NC3(C)CC3)C2)[nH]n1` [Compound 184]: 0.5 nM.
Molecule `C#C[C@H]1C[C@@H]1C(=O)Nc1cc([C@@H]2C[C@H](OC(=O)NC(C)(C)CC)CO2)[nH]n1` [Compound 169] had an IC50 of 1.9 nM.
Next, `COC1CCC(C(=O)Nc2cc([C@H]3CC[C@@H](OC(=O)NC(C)C)C3)[nH]n2)C1` (single isomer, unassigned) [Compound 60]: 37.4 nM.
Next, `CCC1(NC(=O)O[C@H]2CO[C@@H](c3cc(NC(=O)c4ccnn4C)n[nH]3)C2)CCC1` [Compound 183]: 0.5 nM.
Turning to `Cn1nccc1C(=O)Nc1cc([C@@H]2C[C@H](OC(=O)NC34CC(F)(C3)C4)CO2)[nH]n1` [Compound 160], half-maximal inhibition (IC50) was put at 5.3 nM.
As for `C#C[C@H]1C[C@@H]1C(=O)Nc1cc([C@@H]2C[C@H](OC(=O)NC3(C)COC3)CO2)[nH]n1` [Compound 197], the figure is 15.7 nM; as for `CC(C)NC(=O)O[C@@H]1CC[C@H](c2cc(NC(=O)[C@H]3CCN(CC(F)F)C3)n[nH]2)C1` [Compound 13], 5.8 nM; as for `CC(C)NC(=O)O[C@@H]1CC[C@H](c2cc(NC(=O)C34CC(C3)C4)n[nH]2)C1` [Compound 46], 1.5 nM.
Molecule `CCC1(NC(=O)O[C@@H]2CO[C@H](c3cc(NC(=O)c4ccnn4C)n[nH]3)C2)CC1` [Compound 204] returned an IC50 of 1 nM.
